Data published in patent publication US20230026259A1, “CA2 COMPOSITIONS AND METHODS FOR TUNABLE REGULATION” (Obsidian Therapeutics, Inc., priority 2019, published 2023).

Assays:
Type in all cases: cell-based
[1] = system: NIH3T3 cells; experiment: Destabilization mutant screening of human CA2 linked to GFP, ligand response by FACS (Valdecoxib, Celecoxib, Acetazolamide); conditions: for stabilization with varying doses of Valdecoxib or Celecoxib: NIH3T3 cells, FACS
Protocol: To identify destabilizing mutations of human CA2 that are stabilized upon ligand binding to CA2, two rounds of mutant screening were performed, using a lentivirus CA2 mutant library provided by Genscript (China). These methods were used to generate a library of mutant polypeptides using mutagenesis primers and error prone PCR. Lentiviral vectors expressing the template, wild-type human CA2 operably linked to GFP(OT-001986) was also provided by Genscript along with the CA2 mutant library. The library was packaged into lentivirus, transduced into NIH3T3 cells at a multiplicity of infection (MOI) of approximately 0.3 and select stable cell pools were derived by selecting with selection marker puromycin.
To identify cell pools containing destabilizing mutants of CA2 that are stabilizing when CA2 is bound to its corresponding ligand, cells were sorted using FACS. In the initial round, the bottom 15% of population that was GFP negative in the absence of ligand was selected. Cells were expanded and then treated with 10 μM Celecoxib for 24 hours and harvested for cell sorting. The top 11% GFP positive cells which were also responsive to ligand treatment compared to untreated were collected. Celecoxib was removed from the cultures and replaced with DMSO. […] Genomic DNA was isolated and amplified CA2 mutants were reintroduced to the lentiviral vectors where CA2 was operably linked to GFP. The constructs were transduced into NIH3T3 cells with lentivirus vectors for each clone. The cells were treated with 10 μM Valdecoxib or 10 μM Celecoxib for 24 hours and analyzed by FACS. […] In Table 25, the Construct ID (OT-XXXXXX) refers to the construct which includes the referenced CA2 mutant and the Library ID (LibCXXXXXX) refers to the CA2 mutant itself.
The response of NIH3T3 cells to varying doses of Valdecoxib or Celecoxib for 24 hours was measured and analyzed by FACS.
Clones treated with different ligands were compared to examine the behavior of each mutant with the ligands.

[2] = system: NIH3T3 cells; experiment: as above
[3] = system: NIH3T3 cells; experiment: Immunoblotting of cell lysates for GFP after ligand treatment; conditions: 24 hours; for GFP protein expression by immunoblot, Acetazolamide: NIH3T3 cells, 0.3, 1, 3, 10 or 30 μM Acetazolamide; for GFP protein expression by immunoblot, Celecoxib or Valdecoxib: NIH3T3 cells, 1, 3, 10 or 30 μM Celecoxib or Valdecoxib
Protocol: The protein expression in the presence of ligand was measured by immunoblotting the cell lysates for GFP.
The protein expression in the presence of ligand was measured by immunoblotting cell lysates for GFP.

[4] = NIH3T3, 10 μM Celecoxib vs DMSO
[5] = NIH3T3, 10 μM Valdecoxib vs DMSO
[6] = NIH3T3, Acetazolamide 0.03 μM, 24 hours
[7] = NIH3T3, Acetazolamide 0.1 μM vs DMSO
[8] = NIH3T3, Acetazolamide 0.1 μM, 24 hours
[9] = NIH3T3, Acetazolamide 0.3 μM vs DMSO
[10] = NIH3T3, Acetazolamide 0.3 μM, 24 hours
[11] = NIH3T3, Acetazolamide 1 μM vs DMSO
[12] = NIH3T3, Acetazolamide 1 μM, 24 hours
[13] = NIH3T3, Acetazolamide 3 μM vs DMSO
[14] = NIH3T3, Acetazolamide 3 μM, 24 hours
[15] = NIH3T3, Acetazolamide 10 μM vs DMSO
[16] = NIH3T3, Acetazolamide 10 μM, 24 hours
[17] = NIH3T3, Acetazolamide 30 μM vs DMSO
[18] = NIH3T3, Acetazolamide 30 μM, 24 hours
[19] = NIH3T3, Celecoxib 0 μM, 24 hours
[20] = NIH3T3, Celecoxib 0.03 μM, 24 hours
[21] = NIH3T3, Celecoxib 0.1 μM, 24 hours
[22] = NIH3T3, Celecoxib 0.3 μM, 24 hours
[23] = NIH3T3, Celecoxib 1 μM, 24 hours
[24] = NIH3T3, Celecoxib 3 μM, 24 hours
[25] = NIH3T3, Celecoxib 10 μM, 24 hours
[26] = NIH3T3, Celecoxib 30 μM, 24 hours
[27] = NIH3T3, Celecoxib μM (concentration not given)
[28] = NIH3T3, DMSO, 24 hours (Acetazolamide experiment)
[29] = NIH3T3, Valdecoxib 0 μM, 24 hours
[30] = NIH3T3, Valdecoxib 0.03 μM, 24 hours
[31] = NIH3T3, Valdecoxib 0.1 μM, 24 hours
[32] = NIH3T3, Valdecoxib 0.3 μM, 24 hours
[33] = NIH3T3, Valdecoxib 1 μM, 24 hours
[34] = NIH3T3, Valdecoxib 3 μM, 24 hours
[35] = NIH3T3, Valdecoxib 10 μM, 24 hours
[36] = NIH3T3, Valdecoxib 30 μM, 24 hours
[37] = NIH3T3, Valdecoxib μM (concentration not given)
[38] = NIH3T3, Acetazolamide 0.03 μM vs DMSO
[39] = NIH3T3, DMSO (reference), Acetazolamide experiment

CA2 (aa 2-260 of WT, L156H) [LibC000208]
Median PE ([1]; NIH3T3, 10 μM Celecoxib): 8690
SR (stabilization ratio) [1, 4]: 9.38
Median PE ([1]; NIH3T3, 10 μM Valdecoxib): 8006
SR (stabilization ratio) [1, 5]: 8.65
Median FITC / Median PE [1, 6]: 1190
Fold change [1, 7]: 2.82
Median FITC / Median PE [1, 8]: 2137
Fold change [1, 9]: 6.23
Median FITC / Median PE [1, 10]: 4715
Fold change [1, 11]: 13.17
Median FITC / Median PE [1, 12]: 9970
Fold change [1, 13]: 18.36
Median FITC / Median PE [1, 14]: 13900
MFI, comparative analysis ([1]; NIH3T3, Acetazolamide 10 μM): 16900
Fold change [1, 15]: 22.32
Median FITC / Median PE [1, 16]: 16900
MFI, comparative analysis ([1]; NIH3T3, Acetazolamide 30 μM): 17800
Fold change [1, 17]: 23.51
Median FITC / Median PE [1, 18]: 17800
Med (median fluorescence intensity) [1, 19]: 906
SR (stabilization ratio) [1, 19]: 1
Med (median fluorescence intensity) [1, 20]: 1017
SR (stabilization ratio) [1, 20]: 1.12
Med (median fluorescence intensity) [1, 21]: 1194
SR (stabilization ratio) [1, 21]: 1.32
Med (median fluorescence intensity) [1, 22]: 1457
SR (stabilization ratio) [1, 22]: 1.61
Med (median fluorescence intensity) [1, 23]: 2221
SR (stabilization ratio) [1, 23]: 2.45
Med (median fluorescence intensity) [1, 24]: 5404
SR (stabilization ratio) [1, 24]: 5.96
Med (median fluorescence intensity) [1, 25]: 9766
SR (stabilization ratio) [1, 25]: 10.78
Med (median fluorescence intensity) [1, 26]: 13200
SR (stabilization ratio) [1, 26]: 14.57
MFI, comparative analysis, normalized to parental day 1 [1, 27]: 8707.036
MFI, comparative analysis ([1]; NIH3T3, DMSO): 757
Median PE ([1]; NIH3T3, DMSO): 926
SR (stabilization ratio) ([1]; NIH3T3, DMSO (reference)): 1
Median FITC / Median PE [1, 28]: 757
Med (median fluorescence intensity) [1, 29]: 906
SR (stabilization ratio) [1, 29]: 1
Med (median fluorescence intensity) [1, 30]: 1049
SR (stabilization ratio) [1, 30]: 1.16
Med (median fluorescence intensity) [1, 31]: 1131
SR (stabilization ratio) [1, 31]: 1.25
Med (median fluorescence intensity) [1, 32]: 1219
SR (stabilization ratio) [1, 32]: 1.35
Med (median fluorescence intensity) [1, 33]: 1747
SR (stabilization ratio) [1, 33]: 1.93
Med (median fluorescence intensity) [1, 34]: 3603
SR (stabilization ratio) [1, 34]: 3.98
Med (median fluorescence intensity) [1, 35]: 8284
SR (stabilization ratio) [1, 35]: 9.14
Med (median fluorescence intensity) [1, 36]: 11300
SR (stabilization ratio) [1, 36]: 12.48
MFI, comparative analysis, normalized to parental day 1 [1, 37]: 7385.735
stabilization with varying doses of Valdecoxib or Celecoxib ([1]; 24 hours): dose dependent stabilization
Fold change [2, 38]: 1.57
Fold change [2, 39]: 1
GFP expression with varying doses of Acetazolamide ([2]; NIH3T3 cells, 24 hours, FACS): dose response stabilization of GFP expression
GFP protein expression by immunoblot, Acetazolamide [3]: stabilization of GFP with increasing ligand doses
GFP protein expression by immunoblot, Celecoxib or Valdecoxib [3]: stabilization of GFP with increasing ligand doses

CA2 (aa 2-260 of WT, L156H, S172C, F178Y, E186D) [LibC000193]
Median PE ([1]; NIH3T3, 10 μM Celecoxib): 7428
SR (stabilization ratio) [1, 4]: 10.71
Median PE ([1]; NIH3T3, 10 μM Valdecoxib): 6445
SR (stabilization ratio) [1, 5]: 9.3
Median FITC / Median PE [1, 6]: 854
Fold change [1, 7]: 2.92
Median FITC / Median PE [1, 8]: 1628
Fold change [1, 9]: 6.59
Median FITC / Median PE [1, 10]: 3669
Fold change [1, 11]: 13.34
Median FITC / Median PE [1, 12]: 7445
Fold change [1, 13]: 18.31
Median FITC / Median PE [1, 14]: 10200
MFI, comparative analysis ([1]; NIH3T3, Acetazolamide 10 μM): 11900
Fold change [1, 15]: 21.36
Median FITC / Median PE [1, 16]: 11900
MFI, comparative analysis ([1]; NIH3T3, Acetazolamide 30 μM): 12900
Fold change [1, 17]: 23.16
Median FITC / Median PE [1, 18]: 12900
Med (median fluorescence intensity) [1, 19]: 826
SR (stabilization ratio) [1, 19]: 1
Med (median fluorescence intensity) [1, 20]: 935
SR (stabilization ratio) [1, 20]: 1.13
Med (median fluorescence intensity) [1, 21]: 1005
SR (stabilization ratio) [1, 21]: 1.22
Med (median fluorescence intensity) [1, 22]: 1211
SR (stabilization ratio) [1, 22]: 1.47
Med (median fluorescence intensity) [1, 23]: 2058
SR (stabilization ratio) [1, 23]: 2.49
Med (median fluorescence intensity) [1, 24]: 4283
SR (stabilization ratio) [1, 24]: 5.19
Med (median fluorescence intensity) [1, 25]: 7751
SR (stabilization ratio) [1, 25]: 9.38
Med (median fluorescence intensity) [1, 26]: 11100
SR (stabilization ratio) [1, 26]: 13.44
MFI, comparative analysis, normalized to parental day 1 [1, 27]: 6910.53
MFI, comparative analysis ([1]; NIH3T3, DMSO): 557
Median PE ([1]; NIH3T3, DMSO): 693
SR (stabilization ratio) ([1]; NIH3T3, DMSO (reference)): 1
Median FITC / Median PE [1, 28]: 557
Med (median fluorescence intensity) [1, 29]: 826
SR (stabilization ratio) [1, 29]: 1
Med (median fluorescence intensity) [1, 30]: 932
SR (stabilization ratio) [1, 30]: 1.13
Med (median fluorescence intensity) [1, 31]: 1013
SR (stabilization ratio) [1, 31]: 1.23
Med (median fluorescence intensity) [1, 32]: 1064
SR (stabilization ratio) [1, 32]: 1.29
Med (median fluorescence intensity) [1, 33]: 1583
SR (stabilization ratio) [1, 33]: 1.92
Med (median fluorescence intensity) [1, 34]: 3667
SR (stabilization ratio) [1, 34]: 4.44
Med (median fluorescence intensity) [1, 35]: 7449
SR (stabilization ratio) [1, 35]: 9.02
Med (median fluorescence intensity) [1, 36]: 9460
SR (stabilization ratio) [1, 36]: 11.45
MFI, comparative analysis, normalized to parental day 1 [1, 37]: 6641.277
stabilization with varying doses of Valdecoxib or Celecoxib ([1]; 24 hours): dose dependent stabilization
Fold change [2, 38]: 1.53
Fold change [2, 39]: 1
GFP protein expression by immunoblot, Acetazolamide [3]: stabilization of GFP with increasing ligand doses
GFP protein expression by immunoblot, Celecoxib or Valdecoxib [3]: stabilization of GFP with increasing ligand doses
